The subject of data set [1] is 7-deaza-dG substituted HT4 and PQ74 templates. Nature of the data set: Primer extension on 7-deaza-dG substituted templates. The class given is biochemical. The note with it: BSU-1051 up to 50 μM. The method, then:
(§1) This assay is a modification of that described by Weitzmann and co-workers (Weitzmann et al., 1996). Briefly, primers (P18, 24 nM) labeled with [γ-^32P] were mixed with template DNA (12 nM)) in a Tris-HCl buffer (10 mM Tris, pH 8.0) containing K^+ (5 mM for the PQ74 template and 50 mM for the HT4 template) and denatured by heating at 90° C. for 5 min. After cooling down to room temperature, BSU-1051 was added at various concentrations and incubated at room temperature for 15 min. The primer extension reactions were initiated by adding dNTP (final concentration 100 μM), MgCl2 (final concentration […]), and Taq DNA polymerase (2.5 U/reaction, Boehringer Mannheim). For sequencing reactions, the TaqTrack Sequencing System (Promega, Wis., Madison) was used. The sequencing reaction buffer was changed to 50 mM Tris-HCl, pH 9.0, 10 mM MgCl, and 50 mM K^+. The reactions were stopped by adding an equal volume of stop buffer (95% formamide, 10 mM EDTA, 10 mM NaOH, 0.1% xylene cyanol, 0.1% bromphenol blue). For the temperature-dependent studies, the ligand concentration was fixed and the primer extension reactions were carried out at the temperatures indicated in methods. The products were separated on a 12% polyacrylamide sequencing gel. The gels were then dried and visualized on a PhosphorImager (Molecular Dynamics model 445 S1). […]

For data set [2], the system named is G-quadruplex of HT4 template (four repeats of TTAGGG). Nature of the data set: DNA synthesis arrest assay with BSU-1051, HT4 template. The class given is biochemical, human. The method, then:
as §1

The test system of data set [3] is G-quadruplex of PQ74 template (four repeats of TTGGGG). Nature of the data set: DNA synthesis arrest assay with BSU-1051, PQ74 template. Format: biochemical. The method, then:
This assay is a modification of that described by Weitzmann and co-workers (Weitzmann et al., 1996). Briefly, primers (P18, 24 nM) labeled with [γ-^32P] were mixed with template DNA (12 nM)) in a Tris-HCl buffer (10 mM Tris, pH 8.0) containing K^+ (5 mM for the PQ74 template and 50 mM for the HT4 template) and denatured by heating at 90° C. for 5 min. After cooling down to room temperature, BSU-1051 was added at various concentrations and incubated at room temperature for 15 min. The primer extension reactions were initiated by adding dNTP (final concentration 100 μM), MgCl2 (final concentration […]), and Taq DNA polymerase (2.5 U/reaction, Boehringer Mannheim). For sequencing reactions, the TaqTrack Sequencing System (Promega, Wis., Madison) was used. The sequencing reaction buffer was changed to 50 mM Tris-HCl, pH 9.0, 10 mM MgCl, and 50 mM K^+. The reactions were stopped by adding an equal volume of stop buffer (95% formamide, 10 mM EDTA, 10 mM NaOH, 0.1% xylene cyanol, 0.1% bromphenol blue). For the temperature-dependent studies, the ligand concentration was fixed and the primer extension reactions were carried out at the temperatures indicated in methods. The products were separated on a 12% polyacrylamide sequencing gel. The gels were then dried and visualized on a PhosphorImager (Molecular Dynamics model 445 S1).
Although it has been shown that G-quadruplex structures block primer extension by DNA polymerase in a K^+ dependent manner (Weitzmann et at., 1996), the inventors are unaware of any reports showing enhanced blockage by G-quadruplex—interactive agents. To determine if BSU-1051 binding to G-quadruplex enhances the block to DNA synthesis, primer extension reactions were carried out in the absence and presence of BSU-1051. Taq DNA polymerase primer extension on DNA templates containing four repeats of either TTGGGG (SEQ ID No. 7) (PQ74) or TTAGGG (SEQ ID No. 1) (HT4) in the presence of different concentrations of BSU-1051 at 55° C. were performed. […]

A further data set concerns Raji. Nature of the data set: MTT cytotoxicity assay, Raji. Format: cell-based, human. To be noted: 72 hours. The method, then:
(§2) The ability of these compounds to inhibit the proliferative capacity of human cancer cells was determined by a standard MTT assay. Briefly, cells were incubated for 72 hours in the presence of various concentrations of compound, and the cell viability was determined by monitoring the formation of a colored formazan salt of the tetrazolium salt 3-(4,5-dimethylthiazol-2-yl)-2,5-diphenyl tetrazolium bromide (MTT) by viable cells.

The subject of data set [4] is [d(TTAGGGT)]4 G-quadruplex. As to the kind of experiment: Kinetics of interaction with G-quadruplex DNA (absorption at 488 nm). The note with it: 5 μM compound, 50 μM quadruplex, pH 7.0. The class given is binding, human. The method, then:
A solution of 5 μM KeTEL01 in 20 mM phosphate buffer, 100 mM KCl, pH 7.0 was placed in a quartz cuvette and the UV/VIS spectrum determined. An aliquot of a solution of [d(TTAGGGT)]4 (SEQ ID No. 6) was added to the cuvette to afford a final concentration of 50 μM. The cuvette was quickly inverted several times and placed in the spectrophotometer. The absorption of the sample at 488 nm was continuously monitored for 3 hours, during which time, the absorption decreased in a multiexponential function. The time required for the absorption at 488 nm to reach one-half of its equilibrium value was 60 mm.

In a further data set the test system is d(TTAGGGT)4 G-quadruplex. As to the kind of experiment: UV/VIS spectroscopy titration with G-quadruplex. The class given is binding, human. The note with it: 20 μM compound, 0-80 μM quadruplex, overnight, pH 7.0. The method, then: (B) Compounds may be selected for their ability to interact with human DNA G-quadruplex as indicated by UV/VIS spectroscopy. To a 10 μM solution of N,N′-bis(2-dimethylaminoethyl)-3,4,9,10-perylenetetracarboxylic acid diimide in 20 mM phosphate buffer containing 100 mM KCl, pH 7.0 in a quartz cuvette was added 10 μL aliquots of a 3 mM solution of d(TTAGGGT)4 (SEQ ID No. 6). After each addition the UV/VIS spectrum was recorded.
(§3) The N,N′-bis(3-morpholinopropyl)3,4,9,10-perylenetetracarboxilic acid diimide (KeTEL01) was synthesized from 3,4,9,10-perylenetetracarboxylic acid dianhydride and 3-morpholinopropylamine using a procedure analogous to that described above in example 5.3 for the synthesis of N,N′-bis(2-piperdinoethyl)-3,4,9,10-perylenetetracarboxylic acid diimide. A solution of KeTEL01 was prepared by dissolving 1 mg of KeTEL01 in 300 μL of 1 N HCl. To this solution was added 11 mL of a pH 7.0 buffer containing 20 mM sodium phosphate, 100 mM KCl, 1 mM EDTA, and 0.02% hydroxypropyl-β-cyclodextrin. Aliquots of this stock solution of KeTEL01 were transferred to 8 different quartz cuvettes and diluted into pH 7.0 mM sodium phosphate, 100 mM KCl, 1 mM EDTA buffer to afford solutions in which the concentration of KeTEL01 was 20 μM. To each of the cuvettes was added a solution of [d(TTAGGGT)]4 (SEQ ID No. 6) so that the final concentration of [d(TTAGGGT)]4 (SEQ ID No. 6) in each of the cuvettes was 0, 4, 8, 12, 16, 20, 50, and 80 μM. These solutions were allowed to stand overnight in the dark, and the UV/VIS spectrum of each was determined. […] In a parallel study, changes in the UV/VIS spectrum of a 20 μM solution of KeTEL01 in a pH 7.0 20 mM phosphate buffer containing 100 mM KCl and 1 mM EDTA were determined upon the addition of […] aliquots of a 3 mM (base pair) solution of calf thymus DNA.

Another data set relates to BT-20. As to the kind of experiment: MTT cytotoxicity assay, BT-20. To be noted: BT-20, 72 hours. Format: cell-based, human. The method, then:
as §2

The next data set concerns MCF-7. As to the kind of experiment: MTT cytotoxicity assay, MCF-7. The class given is cell-based, human. To be noted: MCF-7, 72 hours. The method, then:
as §2

Data set [5] relates to calf thymus DNA (double-stranded DNA). Nature of the data set: UV/VIS spectroscopy with double-stranded DNA. Format: binding. The note with it: 20 μM compound, pH 7.0, 100 mM KCl. The method, then:
as §3

The next data set concerns human cancer cells. As to the kind of experiment: MTT assay, human cancer cell lines. The class given is cell-based. To be noted: 72 hours; highest concentration tested 100 μM. The method, then: as §2
Another data set relates to PC-3. As to the kind of experiment: MTT cytotoxicity assay, PC-3. The class given is cell-based, human. The note with it: PC-3, 72 hours. The method, then:
as §2

In the next data set the test system is d(TTAGGG)4 G-quadruplex. As to the kind of experiment: NMR imino proton titration of G-quadruplex. The class given is binding, human. To be noted: overall stoichiometry 1:1, 500 MHz. The protocol:
(C) Compounds may be selected for their ability to interact with human DNA G-quadruplex as indicated by NMR spectroscopy. The imino proton spectrum (9-12 ppm) of a solution of d(TTAGGG)4 (SEQ ID No. 1) in D2O/H2O (10:90) was determined at 500 MHz. Aliquot of N,N′-bis(2-piperdinoethyl)-3,4,9,10-perylenetetracarboxylic acid diimide were added and the imino proton spectrum recorded.

For data set [6], the system named is G-quadruplex in template DNA PQ74. As to the kind of experiment: DNA Synthesis Arrest Assay (Taq polymerase primer extension, PQ74 template). The class given is biochemical. The method, then: It has been shown that DNA sequences with quadruplex-forming potential present obstacles to DNA synthesis by DNA polymerases in a K^+ dependent manner. This K^+ dependent block to DNA polymerase is a selective and sensitive indicator of the formation of intramolecular quadruplexes (Weitzmann, et al., 1996).
The assay is a modification of that described by Weitzmann, et al. Briefly, primers (24 nM, sequence: 5′-TAATACGACTCACTATAG-3′) (SEQ ID No. 9) labeled with [γ-^32P]ATP were mixed with template DNA PQ74(12 nM, sequence: […] […]-3′) (SEQ ID No. 10) in a Tris-HCl buffer (10 mM Tris, pH 8.0) containing 5 mM K^+ and heated at 90° C. for 4 mm. After cooling at room temperature for 15 mm. potential G-quadruplex-interactive compounds were then added to various concentrations. The primer extension reactions were initiated by adding dNTP (final concentration 100 μM), MgCl2 (final concentration 3 mM) and Taq polymerase (2.5 U/reaction, Boehringer Mannheim). The reactions were incubated at 55° C. for 15 mm. then stopped by adding an equal volume of stop buffer (95% formamide, 10 mM EDTA; 10 mM NaGH, 0.1% xylene cyanol. 0.1% bromophenol blue). The products were separated on a 12% polyacrylamide sequencing gel. The gels were then dried and visualized on a phosphorimager (Molecular Dynamics model 445 S1).
Using the DOCK screening methods above, the carbocyanine group of compounds were identified as potential G-quadruplex interactive agents. […] Each compound was assayed at a concentration of 20 μM.

The next data set concerns telomerase. As to the kind of experiment: Standard telomerase primer extension assay without PCR amplification. Format: biochemical, human. To be noted: at 50 μM, confirmatory tests. The protocol:
The identified inhibitors may be used therapeutically to interfere with the function of telomerase and thus to treat cancers.
Briefly, the 18-mer telomeric primer d[TTAGGG]3 (SEQ ID No. 1) (1 μM) without or with N,N′-bis(2-dimethylaminoethyl)-3,4,9,10-perylenetetracarboxylic acid diimide was elongated with telomerase in the presence of 1.5 μM of [α-^32P]-dGTP (800 Ci mmol^−1, 10 mCi ml^−1) with 1 mM dATP and 1 mM dTTP. The extension products were isolated and visualized by autoradiography after denaturing gel electrophoresis.

Some results are limits rather than exact numbers.

Regarding `C[N+]1(CCC(=O)Nc2ccc3c(c2)C(=O)c2ccc(NC(=O)CC[N+]4(C)CCCCC4CO)cc2C3=O)CCCCC1CO.[I-].[I-]` (stereo not drawn) [BSU-1051], in [1], the “polymerase pausing on 7-deaza-dG substituted templates” value is recorded as “no significant pausing”. The “ΔTm of G-quadruplex” value in [2] (20 μM BSU-1051) and in data set [3] (20 μM BSU-1051) was “about 20 °C” throughout. Also, the “temperature up to which polymerase pausing is observed” value in data set [2] (in the presence of BSU-1051, without ligand pausing fades out at 55° C.) turned out to be 65 °C; in [3] (20 μM BSU-1051, without ligand pausing almost lost at around 65° C.), 74 °C. In [3] (100 μM BSU-1051, 55° C., PQ74 or HT4 template), the “primer extension by Taq DNA polymerase” value is reported as “completely inhibited”.
As for `O=C1c2ccc3c4ccc5c6c(ccc(c7ccc(c2c37)C(=O)N1CCCN1CCOCC1)c64)C(=O)N(CCCN1CCOCC1)C5=O` [KeTEL01, N,N′-bis(3-morpholinopropyl)3,4,9,10-perylenetetracarboxilic acid diimide], the IC50 with Raji, in the data set on BT-20, with MCF-7 and with PC-3 was over 100 µM each time. The “time required for absorption at 488 nm to reach one-half of its equilibrium value” in data set [4] is listed as 60 min. Also, the “hyperchromicity at 510 nm” value in the data set with d(TTAGGGT)4 G-quadruplex was about 40%. The “hyperchromicity at 548 nm” value in the data set with d(TTAGGGT)4 G-quadruplex is about 100%. Besides, the “hypochromicity at 488 nm” value with d(TTAGGGT)4 G-quadruplex is given as about 40%. In addition, the “changes in the UV/VIS spectrum upon addition of calf thymus DNA” value in [5] is “No changes”. Besides, the “cytotoxic effect, MTT” value in the data set with human cancer cells is reported as “no cytotoxic effect”.
Regarding `O=C1c2ccc3c4ccc5c6c(ccc(c7ccc(c2c37)C(=O)N1CCN1CCCCC1)c64)C(=O)N(CCN1CCCCC1)C5=O` [N,N′-bis(2-piperdinoethyl)-3,4,9,10-perylenetetracarboxylic acid diimide], the “upfield shift of G6 imino resonance” value with d(TTAGGG)4 G-quadruplex is listed as over 0.2 ppm. Further, in [6] (0.5-50 μM, PQ sequence), the “DNA synthesis arrest (FIG. 8)” value is listed as “DNA synthesis arrest”.
For `CCN1/C(=C/C=C/c2sc3ccccc3[n+]2CC)Sc2ccccc21.[I-]` [UT-SK-002, diethylthiocarbocyanine iodide], the inhibition of telomerase in the data set with telomerase is 10-35%. For the same compound, in [6] (compound 20 μM), the “Stop (F + P)rel: relative amount of both full-length and paused products” value was 88%; the “Stop (P/T)rel: relative ratio of paused products to total products” value amounted to 139%.
